In this assay the test system is 3T3-L1 adipocytes. Nature of the assay: 3T3-L1 adipocyte lipolysis induced by C26 medium (glycerol assay). As to conditions: for glycerol content: 48 h, control 287.44 μM, model 441.95 μM. Format: cell-based, mouse. An excerpt:
Experimental results of compound 4 alleviating 3T3-L1 adipocytes lipolysis.
Glycerol assay was used to evaluate intracellular lipid content. Glycerol kinase phosphorylates glycerol to glycerol 3-phosphate; glycerol 3-phosphate is oxidized by glycerophosphate oxidase to produce hydrogen peroxide; the chromogenic substrate is converted to benzoquinone imine in the presence of peroxidase, and its optical density value is proportional to the glycerol concentration.
The above methods allow to evaluate the effect of drugs on the fat lipolysis cell model. The methods are as follows:
3T3-L1 cells were seeded in 6-well plates in a culture medium (high-glucose DMEM medium containing 10% FBS and 1% P/S) and placed in a 5% CO2, 37° C. environment. The cells were allowed to grow to 100% confluence and continued to fuse for 3 days to start the differentiation operation. The culture medium for the first differentiation was high-glucose DMEM medium containing 0.5 mM IBMX, […], 1 μM dexamethasone and 10% FBS and 1% P/S, and then differentiated 3T3-L1 adipocytes for 72 h; The culture medium for the second differentiation was high-glucose DMEM medium containing […] and 10% FBS, and 1% P/S, and then differentiated 3T3-L1 adipocytes for 72 h; the culture medium for the third differentiation was high-glucose DMEM medium containing 10% FBS, and 1% P/S, and then differentiated 3T3-L1 for 72 h; After successful differentiation, it was obvious that there were a large number of oil droplets in the cells. In addition, C26 cells were inoculated in T75 flasks in the culture medium (high-glucose DMEM medium containing 10% FBS, and 1% P/S) and placed in a 5% CO2, 37° C. environment. While C26 cells (6×10^6 cells/flask) were passaged, add 15 mL of phenol red-free high-glucose DMEM culture medium to the T75 flask with 100% confluent C26 cells and sequentially subculture for 48 h. To obtain the supernatant, centrifuge C26 culture medium at 1000 rpm for 3 min and at 4000 rpm for 10 min successively, and take the supernatant to obtain the C26 supernatant successively. The C26 supernatant was mixed with phenol red-free high-glucose DMEM medium at 1:1 ratio as a fat lipolysis-inducing medium. Except for the control group with phenol red-free high-glucose DMEM medium, the other each group was added with the same amount of fat lipolysis-inducing liquid; one group was used as the model group, and the rest groups were used as the experimental groups for drug administration. At the same time, compound 4 stock solution was also added into the cells at the following concentrations of 12.5 μM, 25 μM, 50 μM, 100 μM.
The glycerol detection method was performed as follows: after 48 h of action, the glycerol content in the supernatant was detected using the glycerol detection kit from Beijing Applygen Gene Technology Co., Ltd.

On to `CCCCCCCCCCCCSSC(=S)N1CCCC1` [Compound 4], for which the glycerol content reads like this: (12.5 μM compound) 379.44 µM; (25 μM compound) 347.14 µM; (50 μM compound) 313.67 µM; (100 μM compound) 310.95 µM. Moreover, the “glycerol released from 3T3-L1 mature adipocytes (in words)” value (12.5-100 μM, C26 cell culture medium induced) is on record as “concentration-dependent reduction”.

The values are drawn from patent publication US12269808B2, “Amino dithioperacid thioester compound, preparation method therefor, and use thereof” (FUDAN UNIVERSITY, priority 2019, dated 2025).
